The values that follow come from patent publication US9382228B2 (priority 2013, dated 2016).

Test [1] has as its system phospho-FMS in THP-1 cells. Kind of test: cells. The following applies: Homo sapiens, THP-1, read-out: pFMS inhibition in THP-1 cells.
Protocol: In a separate 96 well black clear bottom plate, one hundred and fifty thousand THP-1 cells were added per well in 100 μL in assay medium. Fifty microliters of diluted compound was then added to the cells. […] Lysates were prepared and used to perform the phospho-FMS ELISA as described by the manufacturer (catalog #DYC3268, R & D Systems, Minneapolis, Minn.). GraphPad Prism was used to calculate IC50 values obtained from data generated from the ELISA assay.
Test [2] has as its target unphosphorylated c-KIT kinase (uKIT, Seq. ID no. 2) (Homo sapiens, UniProt P10721). Kind of test: biochemical. The following applies: uKIT, enzymatic assay, ATP 2000 μM.
Protocol: uKit kinase (Seq. ID No. 2) Assay
In this assay, the oxidation of NADH (thus the decrease at A340 nm) was continuously monitored spectrophometrically. […] The inhibition reaction was started by mixing serial diluted test compound with the above reaction mixture. The absorption at 340 nm was monitored continuously for 4 hours at 30° C. on Synergy 2 plate reader (BioTech).
Another test deals with osteoclast precursors. Kind of test: cells. Type of test: cell-based. Conditions: read-out: Osteoclast assay.
In test [3] the target is T1, unphosphorylated c-FMS kinase (uFMS, Seq. ID no. 1) (Homo sapiens, UniProt P07333).
T1 sequence (P07333 538-972): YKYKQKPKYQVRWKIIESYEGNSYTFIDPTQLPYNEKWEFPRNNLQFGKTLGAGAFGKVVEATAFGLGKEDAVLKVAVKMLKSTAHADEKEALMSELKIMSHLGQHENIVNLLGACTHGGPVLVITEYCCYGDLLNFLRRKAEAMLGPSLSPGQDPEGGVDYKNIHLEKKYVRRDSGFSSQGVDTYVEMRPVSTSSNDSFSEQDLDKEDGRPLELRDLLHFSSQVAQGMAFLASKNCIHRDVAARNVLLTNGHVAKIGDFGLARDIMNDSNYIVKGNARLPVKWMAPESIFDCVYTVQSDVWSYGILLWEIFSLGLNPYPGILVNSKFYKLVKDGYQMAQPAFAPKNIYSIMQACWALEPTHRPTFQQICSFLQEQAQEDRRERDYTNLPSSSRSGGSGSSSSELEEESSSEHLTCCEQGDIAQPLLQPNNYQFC
Kind of test: biochemical. Conditions: uFMS, enzymatic assay, ATP 500 μM.
Protocol: In this assay, the oxidation of NADH (thus the decrease at A340 nm) was continuously monitored spectrophometrically. The reaction mixture (100 μL) contained FMS (purchased from Millipore) (10 nM), polyE4Y (1 mg/mL), MgCl2 (10 mM), pyruvate kinase (4 units), lactate dehydrogenase (0.7 units), phosphoenol pyruvate (1 mM), NADH (0.28 mM) and ATP (500 μM) in 90 mM Tris buffer containing 0.2% octyl-glucoside and 1% DMSO, pH 7.5. The inhibition reaction was started by mixing serial diluted test compound with the above reaction mixture. The absorption at 340 nm was monitored continuously for 4 hours at 30° C. on Synergy 2 plate reader. The reaction rate was calculated using the 3 to 4 h time frame. Percent inhibition was obtained by comparison of reaction rate with that of a control (i.e. in the absence of test compound). IC50 values were calculated from a series of percent inhibition values determined at a range of inhibitor concentrations using software routines as implemented in the GraphPad Prism software package.

For test [4], the target named is unphosphorylated PDGFRβ kinase (uPDGFRβ, Seq. ID No. 3) (Homo sapiens, UniProt P09619). Kind of test: biochemical. The following applies: uPDGFRb, enzymatic assay, ATP 500 μM.
In a further test the test system is M-NFS-60 cells. Kind of test: cells. The following applies: 67 h, read-out: M-NFS-60 cell proliferation.

unphosphorylated c-KIT kinase (uKIT, Seq. ID no. 2), sequence (P10721 with tags, fused parts or gaps): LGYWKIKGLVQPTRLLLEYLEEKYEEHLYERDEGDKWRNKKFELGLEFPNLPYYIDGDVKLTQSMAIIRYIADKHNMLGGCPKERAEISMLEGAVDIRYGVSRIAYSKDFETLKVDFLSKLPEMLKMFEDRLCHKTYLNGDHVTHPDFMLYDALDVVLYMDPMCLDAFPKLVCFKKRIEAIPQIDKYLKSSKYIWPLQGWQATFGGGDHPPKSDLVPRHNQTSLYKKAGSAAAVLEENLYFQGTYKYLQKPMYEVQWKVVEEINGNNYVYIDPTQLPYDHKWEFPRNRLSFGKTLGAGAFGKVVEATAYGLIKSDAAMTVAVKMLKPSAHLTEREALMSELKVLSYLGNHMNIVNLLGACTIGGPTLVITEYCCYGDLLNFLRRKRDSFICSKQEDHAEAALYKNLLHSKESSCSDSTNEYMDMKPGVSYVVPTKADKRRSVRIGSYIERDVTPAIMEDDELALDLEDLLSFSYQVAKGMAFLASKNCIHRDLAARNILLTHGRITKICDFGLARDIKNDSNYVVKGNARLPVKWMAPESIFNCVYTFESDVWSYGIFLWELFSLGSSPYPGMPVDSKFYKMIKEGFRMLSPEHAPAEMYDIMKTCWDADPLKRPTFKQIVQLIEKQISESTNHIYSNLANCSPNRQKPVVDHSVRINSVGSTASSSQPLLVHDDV
unphosphorylated PDGFRβ kinase (uPDGFRβ, Seq. ID No. 3), sequence (P09619 557-1106): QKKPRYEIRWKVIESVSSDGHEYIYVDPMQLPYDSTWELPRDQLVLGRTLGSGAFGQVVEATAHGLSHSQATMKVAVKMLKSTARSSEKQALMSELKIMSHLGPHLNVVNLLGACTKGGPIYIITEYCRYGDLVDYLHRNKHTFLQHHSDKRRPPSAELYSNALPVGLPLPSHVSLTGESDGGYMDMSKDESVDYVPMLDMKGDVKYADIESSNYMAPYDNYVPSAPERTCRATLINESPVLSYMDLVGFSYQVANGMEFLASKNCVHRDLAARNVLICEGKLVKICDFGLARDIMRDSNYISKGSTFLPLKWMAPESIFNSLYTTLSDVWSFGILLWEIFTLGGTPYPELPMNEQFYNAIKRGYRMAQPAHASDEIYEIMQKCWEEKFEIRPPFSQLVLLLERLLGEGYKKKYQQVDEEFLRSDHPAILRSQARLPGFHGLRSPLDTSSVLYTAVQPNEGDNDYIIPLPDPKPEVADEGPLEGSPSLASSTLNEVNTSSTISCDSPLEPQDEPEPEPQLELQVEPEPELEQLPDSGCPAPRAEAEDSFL
Protocol for M-NFS-60 cells: M-NFS-6 Cell Proliferation Assay
A serial dilution of test compound was dispensed into a 384-well black clear bottom plate (Corning, Corning, N.Y.). Two thousand five hundred cells were added per well in 50 μL complete growth medium. […] IC50 values were calculated from a series of percent inhibition values determined at a range of inhibitor concentrations using software routines as implemented in the GraphPad Prism software package.

As to `CC(C)(C)C(=O)NC(=O)Nc1ccc(Oc2ccnc(-c3cncs3)c2)cn1` [Example 125, N-((5-((2-(thiazol-5-yl)pyridin-4-yl)oxy)pyridin-2-yl)carbamoyl)pivalamide], the IC50 in test [1] was 10 to 100 nM; in test [2], greater than 1000 nM; in the test with osteoclast precursors, less than 10 nM; in test [3], less than 10 nM; in test [4], greater than 1000 nM; in the test with M-NFS-60 cells, 100 to 1000 nM.
Take `COC1(C(=O)NC(=O)Nc2ccc(Oc3ccnc(-c4ccc(C)nc4)c3)cn2)CC1` [Example 126, 1-methoxy-N-((5-((6′-methyl-[2,3′-bipyridin]-4-yl)oxy)pyridin-2-yl)carbamoyl)cyclopropanecarboxamide]: the IC50 in test [1] is 10 to 100 nM; in test [2], 100 to 1000 nM; in the test on osteoclast precursors, less than 10 nM; in test [3], less than 10 nM; in test [4], 10 to 100 nM; in the test on M-NFS-60 cells, 10 to 100 nM.
In the case of `CCOC(C)(C)C(=O)NC(=O)Nc1ccc(Oc2ccnc(-c3cnn(C)c3)c2)c(C)n1` [Example 127, 2-ethoxy-2-methyl-N-((6-methyl-5-((2-(1-methyl-1H-pyrazol-4-yl)pyridin-4-yl)oxy)pyridin-2-yl)carbamoyl)propanamide], the IC50 in test [1] is 10 to 100 nM; in test [2] it was 100 to 1000 nM; with osteoclast precursors, less than 10 nM; in test [3], less than 10 nM; in test [4] it was 100 to 1000 nM; in the test with M-NFS-60 cells it was 10 to 100 nM.
Regarding `COC(C)(C)C(=O)NC(=O)Nc1ccc(Oc2ccnc(-n3cnc(C)c3)c2)cn1` [Example 130, 2-methoxy-2-methyl-N-((5-((2-(4-methyl-1H-imidazol-1-yl)pyridin-4-yl)oxy)pyridin-2-yl)carbamoyl)propanamide], the IC50 is less than 10 nM in test [1]; greater than 1000 nM in test [2]; 10 to 100 nM with osteoclast precursors; 10 to 100 nM in test [3]; greater than 1000 nM in test [4]; 10 to 100 nM with M-NFS-60 cells.
As to `Cc1nc(NC(=O)NC(=O)C(C)(C)C)ccc1Oc1ccnc(-c2cncs2)c1` [Example 131, N-((6-methyl-5-((2-(thiazol-5-yl)pyridin-4-yl)oxy)pyridin-2-yl)carbamoyl)pivalamide], the IC50 in test [1] is less than 10 nM; in test [2] it was greater than 1000 nM; in the test on osteoclast precursors, 10 to 100 nM; in test [3], less than 10 nM; in test [4] it was greater than 1000 nM; with M-NFS-60 cells it was 10 to 100 nM.
For `COC(C)(C)C(=O)NC(=O)Nc1ccc(Oc2ccnc(-c3cn(C)cn3)c2)cn1` [Example 132, 2-methoxy-2-methyl-N-((5-((2-(1-methyl-1H-imidazol-4-yl)pyridin-4-yl)oxy)pyridin-2-yl)carbamoyl)propanamide], the IC50 in test [1] is less than 10 nM; in test [2] it was greater than 1000 nM; with osteoclast precursors it was less than 10 nM; in test [3], less than 10 nM; in test [4] it was 100 to 1000 nM; with M-NFS-60 cells, 10 to 100 nM.
`Cc1cn(-c2cc(Oc3ccc(NC(=O)NC(=O)C4(C)CC4)nc3C)ccn2)cn1` [Example 135, 1-methyl-N-((6-methyl-5-((2-(4-methyl-1H-imidazol-1-yl)pyridin-4-yl)oxy)pyridin-2-yl)carbamoyl)cyclopropanecarboxamide]: the IC50 was 10 to 100 nM in test [1]; greater than 1000 nM in test [2]; less than 10 nM in the test with osteoclast precursors; 10 to 100 nM in test [3]; greater than 1000 nM in test [4]; 10 to 100 nM in the test with M-NFS-60 cells.
As to `COC(C)(C)C(=O)NC(=O)Nc1cc(C)c(Oc2ccnc(-c3cnn(C)c3)c2)c(C)n1` [Example 140, N-((4,6-dimethyl-5-((2-(1-methyl-1H-pyrazol-4-yl)pyridin-4-yl)oxy)pyridin-2-yl)carbamoyl)-2-methoxy-2-methylpropanamide], the IC50 in test [1] was less than 10 nM; in test [2] it was 10 to 100 nM; in the test on osteoclast precursors, 10 to 100 nM; in test [3], less than 10 nM; in test [4] it was 100 to 1000 nM; in the test with M-NFS-60 cells, less than 10 nM.
Take `COC1(C(=O)NC(=O)Nc2ccc(Oc3ccnc(-n4cnc(C)c4)c3)cn2)CCCC1` [Example 154, 1-methoxy-N-((5-((2-(4-methyl-1H-imidazol-1-yl)pyridin-4-yl)oxy)pyridin-2-yl)carbamoyl)cyclopentanecarboxamide]: the IC50 in test [1] was 10 to 100 nM; in test [2] it was greater than 1000 nM; with osteoclast precursors it was 10 to 100 nM; in test [3], less than 10 nM; in test [4] it was 100 to 1000 nM; in the test on M-NFS-60 cells, 10 to 100 nM.
In the case of `Cc1ncc(-c2cc(Oc3ccc(NC(=O)NC(=O)C4(C)CCOCC4)nc3)ccn2)s1` [Example 158, 4-methyl-N-((5-((2-(2-methylthiazol-5-yl)pyridin-4-yl)oxy)pyridin-2-yl)carbamoyl)tetrahydro-2H-pyran-4-carboxamide], the IC50 in test [1] is 10 to 100 nM; in test [2], greater than 1000 nM; in the test with osteoclast precursors, 10 to 100 nM; in test [3] it was 10 to 100 nM; in test [4] it was 100 to 1000 nM; with M-NFS-60 cells it was 10 to 100 nM.
As for `COC(C)(C)C(=O)NC(=O)Nc1ccc(Oc2ccnc(-c3cnc(C)o3)c2)cn1` [Example 159, 2-methoxy-2-methyl-N-((5-((2-(2-methyloxazol-5-yl)pyridin-4-yl)oxy)pyridin-2-yl)carbamoyl)propanamide], the IC50 in test [1] is less than 10 nM; in test [2] it was greater than 1000 nM; with osteoclast precursors it was 10 to 100 nM; in test [3], 10 to 100 nM; in test [4] it was greater than 1000 nM; with M-NFS-60 cells, 10 to 100 nM.
Take `COC(C)(C)C(=O)NC(=O)Nc1ccc(Oc2ccnc(-c3ccnc(C)c3)c2)cn1` [Example 160, 2-methoxy-2-methyl-N-((5-((2′-methyl-[2,4′-bipyridin]-4-yl)oxy)pyridin-2-yl)carbamoyl)propanamide]: the IC50 was less than 10 nM in test [1]; greater than 1000 nM in test [2]; 10 to 100 nM in the test with osteoclast precursors; less than 10 nM in test [3]; greater than 1000 nM in test [4]; less than 10 nM with M-NFS-60 cells.
`CCOC(C)(C)C(=O)NC(=O)Nc1ccc(Oc2ccnc(-c3ccnc(C)c3)c2)cn1` [Example 161, 2-ethoxy-2-methyl-N-((5-((2′-methyl-[2,4′-bipyridin]-4-yl)oxy)pyridin-2-yl)carbamoyl)propanamide]: the IC50 in test [1] is 10 to 100 nM; in test [2] it was greater than 1000 nM; with osteoclast precursors, 10 to 100 nM; in test [3], less than 10 nM; in test [4] it was greater than 1000 nM; in the test on M-NFS-60 cells, 10 to 100 nM.
Consider `COC(C)(C)C(=O)NC(=O)Nc1cc(C)c(Oc2ccnc(-n3cnc(C)c3)c2)cn1` [Example 164, 2-methoxy-2-methyl-N-((4-methyl-5-((2-(4-methyl-1H-imidazol-1-yl)pyridin-4-yl)oxy)pyridin-2-yl)carbamoyl)propanamide], for which the IC50 in test [1] is less than 10 nM; in test [2] it was greater than 1000 nM; in the test with osteoclast precursors, 10 to 100 nM; in test [3], less than 10 nM; in test [4], greater than 1000 nM; in the test on M-NFS-60 cells, less than 10 nM.
Regarding `Cc1cc(NC(=O)NC(=O)C2(C)CCOCC2)nc(C)c1Oc1ccnc(-c2cnn(C)c2)c1` [Example 165, N-((4,6-dimethyl-5-((2-(1-methyl-1H-pyrazol-4-yl)pyridin-4-yl)oxy)pyridin-2-yl)carbamoyl)-4-methyltetrahydro-2H-pyran-4-carboxamide], the IC50 in test [1] was 10 to 100 nM; in test [2], 100 to 1000 nM; in the test on osteoclast precursors, 10 to 100 nM; in test [3], less than 10 nM; in test [4], 10 to 100 nM; in the test on M-NFS-60 cells, 10 to 100 nM.
On to `CCc1nc(NC(=O)NC(=O)C2(C)CCOCC2)ccc1Oc1ccnc(-c2cnn(C)c2)c1` [Example 167, N-((6-ethyl-5-((2-(1-methyl-1H-pyrazol-4-yl)pyridin-4-yl)oxy)pyridin-2-yl)carbamoyl)-4-methyltetrahydro-2H-pyran-4-carboxamide], for which the IC50 in test [1] is 10 to 100 nM; in test [2], greater than 1000 nM; in the test on osteoclast precursors, 100 to 1000 nM; in test [3] it was 10 to 100 nM; in test [4], greater than 1000 nM; with M-NFS-60 cells it was 100 to 1000 nM.
As for `CC(C)c1nc(-c2cc(Oc3ccc(NC(=O)NC(=O)C(C)(C)C)nc3)ccn2)c[nH]1` [Example 169, N-((5-((2-(2-isopropyl-1H-imidazol-4-yl)pyridin-4-yl)oxy)pyridin-2-yl)carbamoyl)pivalamide], the IC50 in test [1] is less than 10 nM; in test [2] it was greater than 1000 nM; in the test on osteoclast precursors, 10 to 100 nM; in test [3], less than 10 nM; in test [4], greater than 1000 nM; in the test with M-NFS-60 cells, 10 to 100 nM.
For `CCn1cc(-c2cc(Oc3ccc(NC(=O)NC(=O)C(C)(C)OC)nc3)ccn2)cn1` [Example 170, N-((5-((2-(1-ethyl-1H-pyrazol-4-yl)pyridin-4-yl)oxy)pyridin-2-yl)carbamoyl)-2-methoxy-2-methylpropanamide], the IC50 in test [1] is 10 to 100 nM; in test [2] it was 100 to 1000 nM; with osteoclast precursors it was less than 10 nM; in test [3], less than 10 nM; in test [4], greater than 1000 nM; in the test on M-NFS-60 cells, less than 10 nM.
